The conditions of data set [1]: mice; cited from earlier work.
The conditions of data set [2]: humans; cited from earlier work.
For data set [3] the following is noted: rodents; cited from earlier work.
The conditions of data set [4]: fighting mice; cited from earlier work.
The target of data set [5] is T1, kappa-1 receptor (Homo sapiens, UniProt P41145).
T1 construct: from tissue; host or cells: human insular cortex membranes
Briefly: Competition binding at the kappa-1 receptor of human insular cortex ([3H]U693593). Particulars: for IC50: IC50, human insular cortex; for IC50 / nH: mean ± S.D.; for relative potency at the kappa-1 receptor: comparison with ibogaine, in words; for nH: human insular cortex. The procedure: Data analysis was performed with EBDA (DRUG); NS = nonspecific
The data presented are the mean ± S.D. of two independent

The target of data set [6] is T2, 5-HT transporter (Homo sapiens, UniProt P31645).
T2 construct: from tissue; host or cells: human occipital cortex membranes
Kind of data set: Full competition experiments at the 5-HT transporter in human occipital cortex ([125I]RTI55). In kind it is binding. To be noted: for relative potency at the 5-HT transporter: comparison with ibogaine or noribogaine, in words; for IC50 / nH: human occipital cortex, mean ± S.D.; for IC50: 0.01 nM [125I]RTI55, 1 μM benztropine, 25° C., two determinations in triplicate; for nH: 0.01 nM [125I]RTI55. On the procedure: ^a Membranes isolated from human occipital cortex were incubated for
hr at 25° C., in the presence of 1 μM benztropine, with 0.01 nM
[^125 I]RTI55 and varying concentrations of the respective compounds.
Data analysis was performed with EBDA (DRUG). The data presented are the
mean ± S.D. of two independent determinations conducted in triplicate,
nonspecific binding was evaluated using 50 μm-cocaine. (See, J.K.
Staley et al., J. Neurochem., 62, 549 (1994)).

Data set [7] has as its system kappa-1 receptor. Briefly: Preliminary screening, binding at the kappa-1 receptor. Particulars: in words. On the procedure: To assess the potential addiction-interrupting effects of the newly synthesized iboganoids, compounds 7a,b,c were tested for binding at the 5-HT transporter and the […] and kappa-2 opiate receptors, molecular targets known to modulate mesolimbic dopaminergic function.

The nature of data set [8]: In vivo evaluation, behavior of rats after injection. To be noted: for tremorigenic effect relative to ibogaine: comparison in words with ibogaine at 40 mg/kg; for tremors: 7a 100 μmol/kg; for tremors / locomotor activity and ataxia / behavioral symptoms: 7b comparable dose; for locomotor activity and ataxia / behavioral symptoms: injection, 7a and 7c 100 μmol/kg, 7d 150 μmol/kg. On the procedure: Onset of symptoms was evident within 2 minutes, and the effects were most severe by 5 min. Signs of recovery became evident by 40 min post-injection and the animals appeared fully recovered after 60 min. Mild tremors were observed between 3 and 8 min post-injection.

Data set [9] has as its system NMDA receptor. Briefly: NMDA receptor binding in human caudate (FIG. 3A). Particulars: comparison in words. On the procedure:
The affinity of compounds 7a-c for the NMDA receptor was measured in human brain tissue employing the methodology of P. Popik et al., Psychopharmacol., 114, 672 (1994).

The conditions of data set [10]: dogs and rabbits; cited from earlier work.
In data set [11] the test system is dopamine levels in the nucleus accumbens and striatum. Particulars: nucleus accumbens and striatum (ibogaine: striatum); cited from earlier work.
For data set [12] the following is noted: other animals; cited from earlier work.
For data set [13] the following is noted: humans; cited from earlier work. The source holds these as a separate data set.
For data set [14] the following is noted: cats; cited from earlier work.
The mark [15] stands for this setting: rats, 100 μmol/kg, post-injection.

Entries after “also recorded” stand apart in the source; their conditions may differ.

For `CN1CCc2c([nH]c3ccccc23)C(c2ccccc2)C1` (stereo not shown) [3-methyl-5-phenyl-1,2,3,4,5,6-hexahydroazepino[4,5-b]indole], the antidepressant activity entry in [1] is on record as “displayed antidepressant activity”.
As to `c1ccc(C2CNCCc3c2[nH]c2ccccc32)cc1` (stereo not shown) [5-phenyl-1,2,3,4,5,6-hexahydroazepino[4,5-b]indole], in [1], the antidepressant activity result is on record as “displayed antidepressant activity”.
On to `Cn1c2c(c3ccccc31)CCNCC2` [6-methyl-1,2,3,4,5,6-hexahydroazepino[4,5-b]indole], for which, in data set [2], the neuroleptic activity entry is listed as “did not exhibit neuroleptic activity in humans”. For the same compound, in [3], the conditioned avoidance result is given as “block conditioned avoidance”; the “hypothermia and anorexigenic behavior” value is “induce hypothermia and anorexigenic behavior in rodents”. Further, the aggressive behavior result in data set [4] is “antagonize aggressive behavior in fighting mice”.
The term IC50 denotes the point on the concentration scale where inhibition reaches its midpoint. Lower therefore signals greater potency in that assay. In data set [5] (NS = 10 μM Naloxone), `CCN1CCc2c(sc3ccccc23)C(c2ccccc2)C1` (stereo not shown) [Compound 7a, 3-Ethyl-5-phenyl-1,2,3,4,5-pentahydroazepino[4,5-b]benzothiophene] returned an IC50 of 17.2 ± 3.18 µM and a nH of 0.5 ± 0.0. Further, in [5] (NS, Computer-derived), the IC50 was determined as 10.1 ± 2.01 µM and the nH turned out to be 1.3 ± 0.1. Moreover, the “relative potency at the kappa-1 receptor” value in data set [5] is “essentially equipotent with ibogaine”. Further, in data set [6], the “relative potency at the 5-HT transporter” value is given as “two- to threefold more potent than ibogaine”, the IC50 amounted to 0.21 ± 0.01 µM and the nH worked out at 1.0 ± 0.1. The “activity/affinity at the kappa-1 receptor” value (“activity/affinity” below) in data set [7] is given as “some activity”. Further, the “tremorigenic effect relative to ibogaine” value in [8] is recorded as “much less tremorigenic than ibogaine”. Further, in data set [8] (rats, 100 μmol/kg), the breathing result was “Breathing appeared labored”; the onset of symptoms is not above 2 min; the tail posture result is “the tail remained outstretched and limp”; the “time at which effects were most severe” value is given as not above 5 min. In data set [8] (setting [15]), the “time at which signs of recovery became evident” value is on record as not above 40 min and the “time to full recovery” value came out at 60 min. Also, in data set [8] (rats), the tremors entry is “Mild tremors”; the “locomotor activity and ataxia / behavioral symptoms” value is “severe reduction in locomotor activity and ataxia”.
With `CCN1CCc2c(sc3ccccc23)C(c2cccc([N+](=O)[O-])c2)C1` (stereo not shown) [Compound 7b, 3-Ethyl-5-(3-nitrophenyl)-1,2,3,4,5-pentahydroazepino[4,5-b]benzothiophene], in data set [6], the “relative potency at the 5-HT transporter” value is “two- to threefold more potent than ibogaine”, the IC50 worked out at 0.26 ± 0.06 µM and the nH was 1.0 ± 0.2. Besides, the “activity/affinity” value in [7] was “poor affinity”. The “tremorigenic effect relative to ibogaine” value in data set [8] is “much less tremorigenic than ibogaine”. Further, the tremors entry in data set [8] (rats) is recorded as “no tremors were observed”.
As to `CCN1CCc2c(sc3ccccc23)C(c2cccc(Br)c2)C1` (stereo not shown) [Compound 7c, 3-Ethyl-5-(3-bromophenyl)-1,2,3,4,5-pentahydroazepino[4,5-b]benzothiophene], the IC50 in data set [5] (NS = 10 μM Naloxone) was determined as 117 ± 14.5 µM; in [5] (NS, Computer-derived), 49 ± 0.96 µM; in data set [6], 0.82 ± 0.16 µM. Also, the “relative potency at the kappa-1 receptor” value in data set [5] is listed as “significantly less potent”. Further, the nH in data set [5] (NS = 10 μM Naloxone) is listed as 0.6 ± 0.1; in data set [5] (NS, Computer-derived), 0.9 ± 0.1; in [6] it was 1.2 ± 0.2. Also, the “relative potency at the 5-HT transporter” value in [6] is “essentially equipotent with the naturally occurring compound”. Moreover, the “activity/affinity” value in data set [7] was “some activity”. In [8] (rats), the “locomotor activity and ataxia / behavioral symptoms” value is reported as “No effects were observed”. The “relative potency at the NMDA site” value in data set [9] was “equipotent with ibogaine; also recorded: about fivefold more potent than 7a,b and noribogaine”.
On to `CC[C@H]1C[C@H]2C[C@H]3c4[nH]c5ccc(OC)cc5c4CCN(C2)[C@@H]13` [Ibogaine, ibogaine], for which the “excitatory effects and local anesthetic activity” value in data set [10] is “unusual excitatory effects and local anesthetic activity”. Further, in data set [11], the dopamine levels result is reported as “reduce dopamine levels in the striatum”. Moreover, the “number of doses required for comparable effects” value in data set [12] is on record as “up to three doses”. Moreover, the “craving / drug-free status” value in data set [13] was “some addicts reported alleviation or cessation of craving, and a few remained drug-free for several years thereafter; also recorded: effective in reducing craving in some humans while others were unaffected”. In data set [14], the psychostimulant effects entry was “psychostimulant which caused phobia, ataxia and tremors in cats”.
Consider `CCC1CC2CC3c4[nH]c5ccc(O)cc5c4CCN(C2)C13` (stereo not shown) [Noribogaine, 12-hydroxyibogamine, reference compound], for which, in data set [5] (0.3 nM [3H]U693593, 1 hr, 25° C., NS definition not stated in line), the IC50 turned out to be 4.24 ± 0.28 µM. For the same compound, the figures for the nH in data set [5] (NS definition not stated in line) and in data set [6] were 1.1 ± 0.1 and 0.78 ± 0.06, respectively.
Regarding `CC[C@H]1C[C@@H]2CN3CCc4c([nH]c5ccccc45)[C@](C(=O)OC)(C2)[C@H]13` [R-coronaridine], the dopamine levels result in data set [11] is “reduced dopamine levels in the nucleus accumbens and striatum”.
Take `COC(=O)[C@H]1[C@@H](OC(=O)c2ccccc2)C[C@@H]2CC[C@H]1N2C` [cocaine, reference compound]: the “reversal of the reduction in locomotor activity induced by 7b” value in data set [8] (rats, cocaine 10 mg/kg ip, injected 10 min after 7b) is listed as “reversed the reduction in locomotor activity induced by 7b”.
For the compound R-ibogamine [R-ibogaine], in [11], the dopamine levels entry is “reduced dopamine levels in the nucleus accumbens and striatum”.

The values are drawn from patent US5616575A (priority 1995, dated 1997).
